The values that follow come from PMC3168433, “Drosophila KCNQ Channel Displays Evolutionarily Conserved Electrophysiology and Pharmacology with Mammalian KCNQ Channels” (PLoS ONE, 2011).

Holding throughout (assay type): cell-based
One test has as its target T1, KCNQ1/KCNE1 (Homo sapiens, UniProt P51787).
T1 construct: human KCNQ1 co-expressed with KCNE1 (cDNA 1:2) in HEK cells, pIRES1-CD8; with Potassium voltage-gated channel subfamily E member 1
The test is described as follows: whole-cell patch clamp, HEK cells, current at +[…] mV. The following applies: HEK293. Background: The patch-clamp technique gives a direct electrical read-out from membranes.

In test [1] the target is T2, dKCNQ (Drosophila melanogaster, UniProt Q5PXF9).
T2 construct: gene KCNQ; full-length cDNA RE26469 in pIRES2-EGFP, expressed in HEK cells; homotetramer
T2 sequence (Q5PXF9 1-808): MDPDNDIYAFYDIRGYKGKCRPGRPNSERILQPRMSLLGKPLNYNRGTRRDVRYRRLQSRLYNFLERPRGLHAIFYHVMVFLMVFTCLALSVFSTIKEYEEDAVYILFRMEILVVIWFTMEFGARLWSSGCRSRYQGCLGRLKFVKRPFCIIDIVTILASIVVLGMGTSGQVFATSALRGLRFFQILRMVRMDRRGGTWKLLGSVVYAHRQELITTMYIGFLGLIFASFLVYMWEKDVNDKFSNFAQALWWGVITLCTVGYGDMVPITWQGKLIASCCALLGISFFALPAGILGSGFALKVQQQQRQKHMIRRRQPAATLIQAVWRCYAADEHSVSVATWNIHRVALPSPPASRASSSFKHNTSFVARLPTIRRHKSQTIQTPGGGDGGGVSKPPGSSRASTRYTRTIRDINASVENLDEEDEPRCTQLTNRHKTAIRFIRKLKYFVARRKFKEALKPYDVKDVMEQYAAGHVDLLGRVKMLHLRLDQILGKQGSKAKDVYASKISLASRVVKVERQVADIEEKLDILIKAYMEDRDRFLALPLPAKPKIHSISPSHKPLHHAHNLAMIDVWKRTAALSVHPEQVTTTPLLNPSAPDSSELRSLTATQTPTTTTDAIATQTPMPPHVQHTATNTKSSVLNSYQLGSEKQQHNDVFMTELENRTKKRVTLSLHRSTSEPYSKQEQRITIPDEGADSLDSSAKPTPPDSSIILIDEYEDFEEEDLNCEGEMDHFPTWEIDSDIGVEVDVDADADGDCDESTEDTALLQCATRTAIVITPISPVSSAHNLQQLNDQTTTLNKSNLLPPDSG
Described as above.

The target in test [2] is T2, dKCNQ. The test is described as above. The following applies: HEK293.
The target of test [3] is T3, KCNQ2/3 (Rattus norvegicus, UniProt O88943+O88944).
T3 construct: rat KCNQ2 and KCNQ3 cDNAs in pcDNA3.1 co-transfected 1:1 in HEK cells; heterotetramer
The test is described as above. The following applies: HEK293.

Test [4] addresses T3, KCNQ2/3. Briefly: whole-cell patch clamp, HEK cells, current at −[…] mV. The following applies: opener; at −30 mV; activation V0.5 shifted by −24 mV; pH 7.2; room temperature.

Molecules are shown by their SMILES.

T3 sequence (O88943 whole entry): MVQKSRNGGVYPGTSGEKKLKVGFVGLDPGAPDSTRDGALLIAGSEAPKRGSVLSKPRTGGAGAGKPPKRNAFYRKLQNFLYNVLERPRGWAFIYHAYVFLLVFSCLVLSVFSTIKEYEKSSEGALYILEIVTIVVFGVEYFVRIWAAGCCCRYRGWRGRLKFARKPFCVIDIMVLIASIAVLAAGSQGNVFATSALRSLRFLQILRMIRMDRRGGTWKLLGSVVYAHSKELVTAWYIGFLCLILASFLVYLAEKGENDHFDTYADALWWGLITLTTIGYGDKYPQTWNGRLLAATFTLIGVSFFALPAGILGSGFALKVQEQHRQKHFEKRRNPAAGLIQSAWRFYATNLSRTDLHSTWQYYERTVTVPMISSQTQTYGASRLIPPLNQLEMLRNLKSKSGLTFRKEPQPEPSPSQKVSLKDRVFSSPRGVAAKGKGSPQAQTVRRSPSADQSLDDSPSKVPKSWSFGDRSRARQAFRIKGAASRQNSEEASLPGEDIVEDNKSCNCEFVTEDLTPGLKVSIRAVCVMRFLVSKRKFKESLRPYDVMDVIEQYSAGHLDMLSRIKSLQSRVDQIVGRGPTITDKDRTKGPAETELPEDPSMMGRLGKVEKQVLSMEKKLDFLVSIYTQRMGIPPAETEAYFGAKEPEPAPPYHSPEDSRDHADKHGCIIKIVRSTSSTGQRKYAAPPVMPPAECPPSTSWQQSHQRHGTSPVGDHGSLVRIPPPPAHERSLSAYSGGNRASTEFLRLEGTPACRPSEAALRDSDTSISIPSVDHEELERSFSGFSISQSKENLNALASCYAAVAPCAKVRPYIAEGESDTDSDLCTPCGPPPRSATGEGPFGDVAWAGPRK
T3 sequence (O88944 whole entry): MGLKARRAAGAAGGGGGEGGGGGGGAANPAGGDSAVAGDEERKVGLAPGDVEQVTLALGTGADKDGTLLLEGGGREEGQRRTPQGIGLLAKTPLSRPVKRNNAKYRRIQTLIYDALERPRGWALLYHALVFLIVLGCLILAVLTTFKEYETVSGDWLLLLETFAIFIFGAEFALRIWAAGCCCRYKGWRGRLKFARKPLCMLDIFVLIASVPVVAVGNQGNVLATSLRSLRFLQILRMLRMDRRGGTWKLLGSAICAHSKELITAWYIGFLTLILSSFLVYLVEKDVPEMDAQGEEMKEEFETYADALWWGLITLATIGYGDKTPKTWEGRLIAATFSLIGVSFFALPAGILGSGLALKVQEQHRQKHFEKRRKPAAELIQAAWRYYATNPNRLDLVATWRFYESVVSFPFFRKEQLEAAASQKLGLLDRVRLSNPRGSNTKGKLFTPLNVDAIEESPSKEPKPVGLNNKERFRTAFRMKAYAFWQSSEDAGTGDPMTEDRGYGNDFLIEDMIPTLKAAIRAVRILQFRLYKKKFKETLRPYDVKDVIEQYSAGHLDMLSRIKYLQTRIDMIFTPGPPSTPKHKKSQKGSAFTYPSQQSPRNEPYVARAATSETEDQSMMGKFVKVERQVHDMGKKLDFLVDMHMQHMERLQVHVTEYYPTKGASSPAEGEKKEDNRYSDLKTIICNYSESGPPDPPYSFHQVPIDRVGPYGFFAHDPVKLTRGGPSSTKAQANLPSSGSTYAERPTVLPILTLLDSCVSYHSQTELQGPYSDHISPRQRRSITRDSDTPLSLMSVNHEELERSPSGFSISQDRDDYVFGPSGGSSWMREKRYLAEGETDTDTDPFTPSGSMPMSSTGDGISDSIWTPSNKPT
T1 sequence (P51787 whole entry): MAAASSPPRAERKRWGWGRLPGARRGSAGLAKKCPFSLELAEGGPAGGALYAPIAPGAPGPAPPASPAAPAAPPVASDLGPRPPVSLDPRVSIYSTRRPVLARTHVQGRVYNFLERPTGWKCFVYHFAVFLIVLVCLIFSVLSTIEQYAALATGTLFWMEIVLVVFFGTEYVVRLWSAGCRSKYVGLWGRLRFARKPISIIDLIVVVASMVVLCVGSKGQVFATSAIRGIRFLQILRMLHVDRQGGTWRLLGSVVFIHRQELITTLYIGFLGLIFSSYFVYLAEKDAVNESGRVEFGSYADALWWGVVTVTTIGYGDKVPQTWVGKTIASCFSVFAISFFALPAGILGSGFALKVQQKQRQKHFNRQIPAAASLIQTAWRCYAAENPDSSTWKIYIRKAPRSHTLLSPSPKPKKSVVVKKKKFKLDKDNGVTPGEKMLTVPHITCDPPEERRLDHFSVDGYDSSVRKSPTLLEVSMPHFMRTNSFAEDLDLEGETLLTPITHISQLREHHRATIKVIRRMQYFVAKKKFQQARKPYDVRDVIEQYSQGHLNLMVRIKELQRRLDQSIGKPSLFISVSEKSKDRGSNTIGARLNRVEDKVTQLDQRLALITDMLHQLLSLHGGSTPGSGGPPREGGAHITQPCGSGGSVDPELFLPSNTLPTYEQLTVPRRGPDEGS

For the compound `CCS(=O)(=O)N(C)C1c2cc(C#N)ccc2OC(C)(C)C1O` (stereo not shown) [chromanol 293B], on KCNQ1/KCNE1, the inhibition at 10 µM is roughly 56%. At dKCNQ [1], this compound came in with an IC50 of 13 ± 3.6 µM.

`O=C1N(c2ccccc2)c2ccccc2C1(Cc1ccncc1)Cc1ccncc1` [linopirdine]: the inhibition at 10 µM was roughly 30% against dKCNQ [2] and roughly 40% at KCNQ2/3 [3].

Compound `O=C1c2ccccc2C(Cc2ccncc2)(Cc2ccncc2)c2ccccc21` [XE991, 10,10-bis(4-Pyridinylmethyl)-9(10H)-anthracenone] returned an IC50 against dKCNQ [1] of 5.5 ± 1.1 µM. Also, on KCNQ2/3 [3], the inhibition at 10 µM was roughly 50%.

In the case of `CCOC(=O)Nc1ccc(NCc2ccc(F)cc2)cc1N` [retigabine], the “% current enhancement at 10 μM” value on KCNQ2/3 [4] was ~ 35%.

Usually inhibition stands for the share of the control response that was lost under treatment. By IC50 is commonly meant the concentration that gives 50% inhibition. Higher therefore signals lower potency.
